In one assay the target is T1, human FGFR4 (Homo sapiens, UniProt P22455).
T1 construct: human FGFR4 cytoplasmic domain (460-802); GST (N); purchased Carna Biosciences 08-136
Description: FGFR4 enzymatic assay (HTRF KinEASE-TK). In kind it is biochemical. The following applies: wild-type human FGFR4 cytoplasmic domain (460-802), GST-tag; 60 min preincubation at 25° C.; ATP 200 μM; read-out: Potency (IC50), FGFR4 enzymatic assay. The method in brief:
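GST-tagged FGFR4 cytoplasmic domain (460-802) at 0.25 μg/ml, preincubated with compound 60 min at 25 °C in HEPES pH 7.0 buffer, then reacted 40 min at 37 °C with 0.3 μM biotin-TK peptide and 200 μM ATP. HTRF detection (665/612 nm) after 60 min; IC50 by four-parameter logistic fit.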
For orientation: In TR-FRET formats the signal depends on donor and acceptor labels being close together.

A further assay deals with Hep3B cells. Description: Cell-based FGFR4 proliferation assay (CellTiter-Glo). The following applies: incubated with test compound for 3 days, CellTiter-Glo luminescence, read-out: Potency (IC50), Hep3B cell proliferation. In short, it runs like this: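 Hep3B cells in MEM/10% FBS were seeded overnight, then exposed to serially diluted compound (DMSO) for 3 days at 37 °C, 5% CO2. Viable cells were quantified by CellTiter-Glo luminescence (ATP), and IC50 was fitted by four-parameter logistic from percent inhibition.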

Assay [1] deals with MAPK phosphorylation in Hep3B cells stimulated with FGF19. Description: FGFR4 pMAPK AlphaLISA SureFire Ultra assay. In kind it is cell-based. The following applies: serum-starved, compound 1 hour, FGF19 100 ng/ml for 4 hours, read-out: Potency (IC50), FGFR4 pMAPK AlphaLISA. From the text:
Cell line: Hepatocellular carcinoma cell line Hep3B (ATCC, Cat #HB-8064).
In normal liver, circulating FGF19 drives liver cell proliferation and regulates bile acid production. However aberrant expression of FGF19 in the liver drives HCC tumorigenesis, upregulates MAPK phosphorylation in FGF19-amplified malignant liver cells. AlphaScreen SureFire technology allows the detection of phosphorylated proteins in cellular lysates in a highly sensitive, quantitative assay. In these assays, sandwich antibody complexes, which are only formed in the presence of analyte, are captured by AlphaScreen Donor and Acceptor beads, bringing them into close proximity. The excitation of the Donor bead provokes the release of singlet oxygen molecules that triggers a cascade of energy transfer in the Acceptor beads, resulting in the emission of light at 520-620 nm.
Hep3B cells were plated at a density of 1×10^4/ml cells in a 96-well plate (Corning #3599), with 100 uL per well of MEM Medium (Gibco Cat #11095-080) supplemented with 10% fetal bovine serum; 1% Penicillin-Streptomycin, and cultured overnight at 37° C., 5% CO2. Starve Hep3B cells in serum-free medium (SFM) supplemented with 0.2% BSA and incubate the cells again overnight at 37° C., 5% CO2. Various concentrations of the test compound (prepared in 2x SFM) were added to the wells of the cell plate and then incubated for 1 hour at 37° C., 5% CO2. 50 μL of FGF19 in SFM was added to each well of the cell plate with a final FGF19 concentration of 100 ng/ml, and cells treated with FGF19 were stimulated for 4 hours at 37° C., 5% CO2. 5 μL of freshly prepared Donor Mix and Acceptor Mix were sequentially added to the cell plate, each followed with 1 hour of incubation at 25° C., 5% CO2. Read the cell plate on an Alpha Technology-compatible plate reader at 570 nm AlphaScreen, using standard AlphaLISA settings. The percent (%) inhibition=((ZPE−Alpha-Signal)/(ZPE−HPE))*100% where the meanings of HPE and ZPE are as provided below.
HPE: Hundred Percent Effect, negative control well without FGF19 nor compound. Final concentration of DMSO is 0.1%.
ZPE: Zero Percent Effect, positive control well without compound. Final concentration of FGF19 is 100 ng/mL, DMSO is 0.1%.
The concentrations and percent inhibition values for a test compound were plotted and the concentration of the compound required to achieve 50% inhibition (IC50) was determined with a four-parameter logistic dose response equation. Dose-response curves were generated using Prism (GraphPad Software, La Jolla, CA, US) to calculate IC50 values for each compound tested.
For orientation: Bead proximity is the source of the signal in Alpha formats.

Each structure is given as a SMILES string. Read-outs that look alike come from different tables or passages of the source. A value given as a limit tells only on which side of the number the result lay.

T1 sequence (P22455 460-802): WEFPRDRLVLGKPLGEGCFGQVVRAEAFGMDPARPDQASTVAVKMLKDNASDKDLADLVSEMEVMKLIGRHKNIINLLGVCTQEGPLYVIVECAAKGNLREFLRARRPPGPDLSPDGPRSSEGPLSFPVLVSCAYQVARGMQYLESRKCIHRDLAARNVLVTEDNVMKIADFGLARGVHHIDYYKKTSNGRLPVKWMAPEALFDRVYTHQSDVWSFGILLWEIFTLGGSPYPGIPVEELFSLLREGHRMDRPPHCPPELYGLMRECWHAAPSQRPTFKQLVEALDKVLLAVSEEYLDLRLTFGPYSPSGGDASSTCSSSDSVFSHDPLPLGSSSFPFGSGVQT

Turning to `[2H]C([2H])([2H])Oc1cc(OC([2H])([2H])[2H])c(F)c(C2CCc3c(-c4c(NC(=O)C=C)cnn4C)n[nH]c3C2)c1F` (single isomer, unassigned) [Compound S8-P1, N-(5-(6-(2,6-difluoro-3,5-bis(methoxy-d3)phenyl)-4,5,6,7-tetrahydro-1H-indazol-3-yl)-1-methyl-1H-pyrazol-4-yl) acrylamide], the IC50 on human FGFR4 was less than 10 nM; in the assay on Hep3B cells (Homo sapiens, Hep3B, 72 h) it was 10 to 100 nM; in assay [1] (Homo sapiens, Hep3B), less than 10 nM.
Turning to `[2H]C([2H])([2H])n1ncc(NC(=O)C=C)c1-c1n[nH]c2c1CCC(c1cc(OC)cc(OC)c1F)C2` (single isomer, unassigned) [Compound S16-P3, N-(5-(6-(2-fluoro-3,5-dimethoxyphenyl)-4,5,6,7-tetrahydro-1H-indazol-3-yl)-1-(methyl-d3)-1H-pyrazol-4-yl)acrylamide], the IC50 was 10 to 100 nM at human FGFR4; more than 100 nM in the assay on Hep3B cells (Homo sapiens, Hep3B, 72 h); 10 to 100 nM in assay [1] (Homo sapiens, Hep3B).
For `C=CC(=O)Nc1c[nH]nc1-c1n[nH]c2c1CCC(c1cc(OC)cc(OC)c1F)C2` (single isomer, unassigned) [Compound S15-P4, N-(3-(6-(2-fluoro-3,5-dimethoxyphenyl)-4,5,6,7-tetrahydro-1H-indazol-3-yl)-1H-pyrazol-4-yl)acrylamide], the IC50 was 10 to 100 nM on human FGFR4, 10 to 100 nM with Hep3B cells and less than 10 nM in assay [1].
In the case of `C=CC(=O)Nc1cnn(C)c1-c1n[nH]c2c1CCC[C@@H](c1c(F)c(OC)cc(OC)c1F)C2` (single isomer, unassigned) [Compound S4-P1], the IC50 is less than 10 nM at human FGFR4; less than 10 nM in the assay with Hep3B cells (Homo sapiens, Hep3B, 72 h); less than 10 nM in assay [1] (Homo sapiens, Hep3B).
As for `[2H]C([2H])([2H])Oc1cc(OC([2H])([2H])[2H])c(F)c(C2CCc3c(-c4c(NC(=O)C=C)cnn4C)n[nH]c3C2)c1` (single isomer, unassigned) [Compound S8-P4, N-(5-(6-(2-fluoro-3,5-bis(methoxy-d3)phenyl)-4,5,6,7-tetrahydro-1H-indazol-3-yl)-1-methyl-1H-pyrazol-4-yl) acrylamide], the values for the IC50 (on human FGFR4; with Hep3B cells; in assay [1]) were 10 to 100 nM, more than 100 nM and 10 to 100 nM, respectively.
